Laboratory results from patent publication US12357645B2, “Drug combination for treatment of gastric cancer” (priority 2023, dated 2025).

Experiments:
[1] = tested on: patients with advanced gastric cancer (AGC); experiment: Phase 1 study of minnelide prodrug alone or with paclitaxel in advanced gastric cancer (NCT 05566834): safety, DLT, MTD, adverse events
[2] = tested on: gastric cancer cell lines MKN28 and MKN45; settings: inhibits Sp1 to decrease HSP70; cited from earlier work

SMILES: CC(C)[C@]12O[C@H]1[C@@H]1O[C@]13[C@]1(O[C@H]1C[C@H]1C4=C(CC[C@@]13C)C(=O)OC4)[C@@H]2OCOP(=O)([O-])[O-].[Na+].[Na+] [minnelide prodrug, disodium; [(1S,2S,4S,5S,7S,8R,9R,11S, 13S)-1-methyl-17-oxo-7-propan-2-yl-3,6,10,16-tetraoxaheptacyclo [11.7.0.0^2,4.0^2,9.0^5,7.0^9,11.0^14,18]icos-14 (18)-en-8-yl]oxymethyl phosphate]
- Minnelide-related AE Overall, ≥Gr 3 ([1]; Total Regimens A-C, n = 36): 10 (27.8) n (%)
- Minnelide-related AE Pruritus, Any ([1]; Total Regimens A-C, n = 36): 1 (2.8)/— n (%)
- Minnelide-related AE Vomiting, Any ([1]; Total Regimens A-C, n = 36): 3 (8.3)/— n (%)
- TRAE Abdominal pain, Any ([1]; Total Regimens A-C, n = 36): 16 (44.4) n (%)
- TRAE Abdominal pain, ≥Gr 3 ([1]; Total Regimens A-C, n = 36): 4 (11.1) n (%)
- TRAE Alopecia, Any ([1]; Total Regimens A-C, n = 36): 2 (5.6)/— n (%)
- TRAE Anemia, Any ([1]; Total Regimens A-C, n = 36): 5 (13.9) n (%)
- TRAE Anemia, ≥Gr 3 ([1]; Total Regimens A-C, n = 36): 3 (8.3) n (%)
- TRAE Annualar scaly plaques, Any ([1]; Total Regimens A-C, n = 36): 1 (2.8)/— n (%)
- TRAE Anorexia, Any ([1]; Total Regimens A-C, n = 36): 18 (50.0)/— n (%)
- TRAE Azotemia, Any ([1]; Total Regimens A-C, n = 36): 2 (5.6)/— n (%)
- TRAE Cancer pain, Any ([1]; Total Regimens A-C, n = 36): 3 (8.3) n (%)
- TRAE Cancer pain, ≥Gr 3 ([1]; Total Regimens A-C, n = 36): 1 (2.8) n (%)
- TRAE Cancer progression, Any ([1]; Total Regimens A-C, n = 36): 4 (11.1)/4 (11.1) n (%)
- TRAE Cancer progression, ≥Gr 3 ([1]; Total Regimens A-C, n = 36): 4 (11.1)/4 (11.1) n (%)
- TRAE Constipation, Any ([1]; Total Regimens A-C, n = 36): 3 (8.3)/— n (%)
- TRAE Decreased vision, Any ([1]; Total Regimens A-C, n = 36): 1 (2.8)/— n (%)
- TRAE Depression, Any ([1]; Total Regimens A-C, n = 36): 1 (2.8)/— n (%)
- TRAE Dyspepsia, Any ([1]; Total Regimens A-C, n = 36): 2 (5.6)/— n (%)
- TRAE Dysuria, Any ([1]; Total Regimens A-C, n = 36): 1 (2.8)/— n (%)
- TRAE Edema, Any ([1]; Total Regimens A-C, n = 36): 1 (2.8)/— n (%)
- TRAE Fatigue, Any ([1]; Total Regimens A-C, n = 36): 7 (19.4)/— n (%)
- TRAE Gastric stenosis, Any ([1]; Total Regimens A-C, n = 36): 1 (2.8)/1 (2.8) n (%)
- TRAE Gastric stenosis, ≥Gr 3 ([1]; Total Regimens A-C, n = 36): 1 (2.8)/1 (2.8) n (%)
- TRAE General weakness, Any ([1]; Total Regimens A-C, n = 36): 2 (5.6)/— n (%)
- TRAE Headache, Any ([1]; Total Regimens A-C, n = 36): 1 (2.8)/— n (%)
- TRAE Hypercalcemia, Any ([1]; Total Regimens A-C, n = 36): 1 (2.8)/1 (2.8) n (%)
- TRAE Hypercalcemia, ≥Gr 3 ([1]; Total Regimens A-C, n = 36): 1 (2.8)/1 (2.8) n (%)
- TRAE Hypophosphatemi, Any ([1]; Total Regimens A-C, n = 36): 1 (2.8)/1 (2.8) n (%)
- TRAE Hypophosphatemi, ≥Gr 3 ([1]; Total Regimens A-C, n = 36): 1 (2.8)/1 (2.8) n (%)
- TRAE Jaundice, Any ([1]; Total Regimens A-C, n = 36): 1 (2.8)/1 (2.8) n (%)
- TRAE Jaundice, ≥Gr 3 ([1]; Total Regimens A-C, n = 36): 1 (2.8)/1 (2.8) n (%)
- TRAE Mucositis, Any ([1]; Total Regimens A-C, n = 36): 1 (2.8)/— n (%)
- TRAE Nausea, Any ([1]; Total Regimens A-C, n = 36): 12 (33.3) n (%)
- TRAE Nausea, ≥Gr 3 ([1]; Total Regimens A-C, n = 36): 2(5.6) n (%)
- TRAE Neutropenia, Any ([1]; Total Regimens A-C, n = 36): 11 (30.6) n (%)
- TRAE Neutropenia, ≥Gr 3 ([1]; Total Regimens A-C, n = 36): 7 (19.4) n (%)
- TRAE Overall, Any ([1]; Total Regimens A-C, n = 36): 34 (94.4) n (%)
- TRAE Overall, ≥Gr 3 ([1]; Total Regimens A-C, n = 36): 16 (44.4) n (%)
- TRAE Pruritus, Any ([1]; Total Regimens A-C, n = 36): 1 (2.8)/— n (%)
- TRAE Rash, Any ([1]; Total Regimens A-C, n = 36): 1 (2.8)/— n (%)
- TRAE Sore throat, Any ([1]; Total Regimens A-C, n = 36): 1 (2.8)/— n (%)
- TRAE Tachycardia, Any ([1]; Total Regimens A-C, n = 36): 2 (5.6)/— n (%)
- TRAE Tuberculosis, Any ([1]; Total Regimens A-C, n = 36): 1 (2.8)/— n (%)
- TRAE Urinary tract infection, Any ([1]; Total Regimens A-C, n = 36): 2 (5.6)/— n (%)
- TRAE Vomiting, Any ([1]; Total Regimens A-C, n = 36): 5 (13.9) n (%)
- TRAE Vomiting, ≥Gr 3 ([1]; Total Regimens A-C, n = 36): 1 (2.8) n (%)
- TRAE Weight loss, Any ([1]; Total Regimens A-C, n = 36): 1 (2.8)/— n (%)
- TRAE neutropenia ([1]; all regimens, 11/36): 30.6%
- TRAE nausea ([1]; all regimens, 12/36): 33.3%
- TRAE abdominal pain ([1]; all regimens, 16/36): 44.4%
- TRAEs above Grade 3, share of patients ([1]; all regimens, 16 patients of 36): 44.4%
- TRAE anorexia ([1]; all regimens, 18/36): 50%
- Grade 5 AEs caused by gastric cancer progression, number ([1]; all regimens, 36 patients): four and Four
- Grade 3 or higher AE with minnelide prodrug: abdominal pain ([1]; all regimens, n = 36): 11.1%
- Grade 3 or higher AE with minnelide prodrug: nausea ([1]; all regimens, n = 36): 5.6%
- Grade 3 or higher AE with minnelide prodrug: neutropenia ([1]; all regimens, n = 36): 19.4%
- Grade 3 or higher AEs with minnelide prodrug, overall ([1]; all regimens, n = 36): 27.8%
- TRAE above Grade 3: abdominal pain ([1]; all regimens, n = 36): 11.1%
- TRAE above Grade 3: neutropenia ([1]; all regimens, n = 36): 19.4%
- drop in blood counts: resolution after withholding the drug ([1]; in vivo): 4 to 8 days
- Grade ≥3 abdominal pain ([1]; monotherapy group): 18.2%
- Grade ≥3 nausea ([1]; monotherapy group): 18.2%
- Grade ≥3 neutropenia ([1]; monotherapy group): 9.1%
- Grade ≥3 vomiting ([1]; monotherapy group): 9.1%
- maximum tolerated dose (MTD) ([1]; monotherapy, PO once daily for 21 days every 4 weeks): 1.25 mg
- drop in blood counts: onset after start of drug ([1]; usually seen): 5 to 7 days
- cell death [2]: induce cell death
